Measured values: publication PMC11079024, “Identification of a family of species-selective complex I inhibitors as potential anthelmintics” (Nature Communications, 2024)
Like-named read-outs stand apart in the source and are kept apart here.

Columns and labels:
[1] = system: ben-1 mutant (ECA882) C. elegans; test: microbe, parasite or virus in culture; conditions: Caenorhabditis elegans; for viability at 1 µM / viability at 2 µM / viability at 3.9 µM / viability at 15.6 µM / viability at 31.3 µM / viability at 62.5 µM / viability at 125 µM / viability at 250 µM / viability at 500 µM / viability at 1000 µM: read-out: C. elegans ben-1(e1880) development/viability
Method in brief: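 Development and viability scored from single well images as total worm pixels divided by the matching DMSO control value, mean of ≥3 replicates. Worms added as synchronized L1s to HB101 suspension in liquid NGM with compound (1% DMSO v/v), grown 6 days at 20 °C with shaking.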

L1 wild-type C. elegans [2] = conditions: for Screen "Hit": 50 μM
in vitro = conditions: human; for viability at 2 days, 3.13 µM / viability at 2 days, 12.5 µM / viability at 2 days, 25 µM / viability at 2 days, 50 µM / viability at 2 days, 100 µM / viability at 2 days, 6.25 µM: HEK293 cells (Flp-In-293)
L1 wild-type C. elegans [3] = test: microbe, parasite or virus in culture; conditions: Caenorhabditis elegans, read-out: C. elegans KCN Survival Assay LC50, estimated from fitted dose-response curves; mean of at least two biological replicates
[4] = read-out: C. elegans (ben-1) Development & Viability Assay LC50
[5] = read-out: C. elegans ben-1 log10 LC50 (converted)
[6] = KCN survival assay, hit = relative motility below 0.25
[7] = HEK293 Cell Viability Assay LC50, HEK293 cells, estimated from fitted dose-response curves, mean of at least two biological replicates
[8] = hit = relative motility below 0.25 3 hours after removal of KCN
[9] = Dose 0.2 µM, mean of at least three biological replicates
[10] = read-out: C. elegans ben-1 LC50
[11] = HEK293 Cell Viability Assay LC50, HEK293 cells, estimated from fitted dose-response curves

SMILES | LC50 [1, 4] | LC50 [1, 5] | LC50 (L1 wild-type C. elegans [3]) | viability at 15.6 µM [1] | viability at 31.3 µM [1] | viability at 62.5 µM [1] | viability at 125 µM [1] | Screen "Hit" (L1 wild-type C. elegans [2]; [8]) | C. elegans KCN Survival (L1 wild-type C. elegans [2]; [9]) | C. elegans KCN Survival (L1 wild-type C. elegans [2]; Dose 0.39 µM) | C. elegans KCN Survival (L1 wild-type C. elegans [2]; Dose 1.56 µM) | C. elegans KCN Survival (L1 wild-type C. elegans [2]; Dose 3.13 µM) | C. elegans KCN Survival (L1 wild-type C. elegans [2]; Dose 6.25 µM) | C. elegans KCN Survival (L1 wild-type C. elegans [2]; Dose 12.5 µM) | C. elegans KCN Survival (L1 wild-type C. elegans [2]; Dose 25 µM) | C. elegans KCN Survival (L1 wild-type C. elegans [2]; Dose 50 µM) | C. elegans KCN Survival (L1 wild-type C. elegans [2]; Dose 100 µM) | viability at 2 days, 3.13 µM (in vitro; HEK293 viability) | viability at 2 days, 12.5 µM (in vitro; HEK293 viability) | viability at 2 days, 25 µM (in vitro; HEK293 viability) | other results
Cc1nc2ccccc2n1Cc1ccc(Br)cc1 [Compound 5567167] | 11.2 µM | 11.2 µM | 1.34 µM | – | – | – | – | – | – | – | – | – | – | – | – | – | – | – | – | – | Screen "Hit" (L1 wild-type C. elegans [2]; [6]): Y (hits were identified as compounds that reduced relative motility below 0.25 (75% reduction)); CC50 at 2 days (in vitro; [7]): 89.3 µM
C=CCn1c(-c2ccc(N(C)C)cc2)nc2ccccc21 [Compound 6873298] | 40.6 µM | 40.6 µM | 5.19 µM | – | – | – | – | – | – | – | – | – | – | – | – | – | – | – | – | – | Screen "Hit" (L1 wild-type C. elegans [2]; [6]): Y (hits were identified as compounds that reduced relative motility below 0.25 (75% reduction)); CC50 at 2 days (in vitro; [7]): 65.3 µM
Cc1ccccc1OCCCn1c(C)nc2ccccc21 [Compound 7916923] | 142 µM | 143 µM | 12.1 µM | 96% | 89.5% | 86.2% | 67.3% | Y (hits were identified as compounds that reduced relative motility below 0.25 (75% reduction)) | 0.930 | 1.083 | 1.052 | 0.985 | 0.888 | 0.491 | 0.124 | 0.136 | 0.168 | 84.6% | 95.2% | 73.1% | viability at 1 µM [1]: 95.8%; viability at 2 µM [1]: 94.9%; viability at 3.9 µM [1]: 93.4%; viability at 250 µM [1]: 2.7%; viability at 500 µM [1]: 2.9%; viability at 1000 µM [1]: 2.3%; CC50 at 2 days (in vitro): 45.5 µM; viability at 2 days, 50 µM (in vitro; HEK293 viability): 41.6%; viability at 2 days, 100 µM (in vitro; HEK293 viability): 9.6%; viability (in vitro; HEK293 viability, Dose 6.25 µM): 94.9%
Cc1nc2ccccc2n1CCOc1ccccc1 [Compound 5550112] | > 1000 µM | > 500 µM | 32.9 µM | 97.1% | 92.9% | 100% | 93.6% | Y (hits were identified as compounds that reduced relative motility below 0.25 (75% reduction)) | 0.995 | 1.044 | 1.038 | 1.021 | 1.008 | 0.918 | 0.699 | 0.269 | 0.187 | 100% | 99.1% | 100% | viability at 1 µM [1]: 99.2%; viability at 2 µM [1]: 100%; viability at 3.9 µM [1]: 96.9%; viability at 250 µM [1]: 86.4%; viability at 500 µM [1]: 91.2%; viability at 1000 µM [1]: 92.4%; LC50 [1, 10]: > 500 µM; CC50 at 2 days (in vitro; [11]): > 100 µM; viability at 2 days, 6.25 µM (in vitro; HEK293 viability, Dose 6.25 µM): 98.3%; viability at 2 days, 50 µM (in vitro; HEK293 viability): 100%; viability at 2 days, 100 µM (in vitro; HEK293 viability): 100%
Cc1ccc(OCCn2cnc3ccccc32)cc1 [Compound 5671538] | > 1000 µM | > 500 µM | 28.3 µM | 100% | 100% | 100% | 100% | Y (hits were identified as compounds that reduced relative motility below 0.25 (75% reduction)) | 0.927 | 0.931 | 0.891 | 0.844 | 0.828 | 0.784 | 0.550 | 0.033 | 0.00256 | 92.2% | 97.1% | 96.2% | viability at 250 µM [1]: 100%; viability at 500 µM [1]: 100%; viability at 1000 µM [1]: 100%; LC50 [1, 10]: > 500 µM; CC50 at 2 days (in vitro; [11]): > 100 µM; viability at 2 days, 6.25 µM (in vitro; HEK293 viability, Dose 6.25 µM): 98.5%; viability at 2 days, 50 µM (in vitro; HEK293 viability): 96.4%; viability at 2 days, 100 µM (in vitro; HEK293 viability): 61.4%
Nc1nc2ccccc2n1CCOc1ccc(Br)cc1 [Compound 5842535] | 41.1 µM | 41 µM | 26.7 µM | 100% | 85.9% | 5.7% | 6% | Y (hits were identified as compounds that reduced relative motility below 0.25 (75% reduction)) | 1.013 | 1.010 | 1.035 | 1.110 | 1.056 | 0.989 | 0.572 | 0.188 | 0.200 | 79.2% | 67.8% | 11% | viability at 1 µM [1]: 99.9%; viability at 2 µM [1]: 100%; viability at 3.9 µM [1]: 97.9%; CC50 at 2 days (in vitro; [11]): 17.3 µM; viability at 2 days, 6.25 µM (in vitro; HEK293 viability, Dose 6.25 µM): 82.9%; viability at 2 days, 50 µM (in vitro; HEK293 viability): 6.3%; viability at 2 days, 100 µM (in vitro; HEK293 viability): 6.3%
Cc1ccc(Cn2c(C)nc3ccccc32)cc1 [Compound 5651984] | 108 µM | 108 µM | 7.24 µM | – | – | – | – | – | – | – | – | – | – | – | – | – | – | – | – | – | Screen "Hit" (L1 wild-type C. elegans [2]; [6]): Y (hits were identified as compounds that reduced relative motility below 0.25 (75% reduction)); CC50 at 2 days (in vitro; [7]): 95.4 µM
Cc1ccc(C(C)C)c(OCC(O)Cn2cnc3ccccc32)c1 (centres unmarked) [Compound 6093301] | 366 µM | 366 µM | 19.8 µM | 96.4% | 97.2% | 83.6% | 88.1% | Y (hits were identified as compounds that reduced relative motility below 0.25 (75% reduction)) | 1.001 | 1.016 | 1.025 | 0.981 | 0.940 | 0.855 | 0.337 | 0.161 | 0.196 | 90.1% | 85.6% | 32.4% | viability at 1 µM [1]: 94.1%; viability at 2 µM [1]: 98.7%; viability at 3.9 µM [1]: 95.9%; viability at 250 µM [1]: 88.4%; viability at 500 µM [1]: 12.5%; viability at 1000 µM [1]: 4.7%; CC50 at 2 days (in vitro): 21.8 µM; viability at 2 days, 6.25 µM (in vitro; HEK293 viability, Dose 6.25 µM): 92.9%; viability at 2 days, 50 µM (in vitro; HEK293 viability): 7.3%; viability at 2 days, 100 µM (in vitro; HEK293 viability): 7.2%
